Measurements taken from patent publication US8268961B2, “Antibacterial peptides and analogues thereof” (Universita Degli Studi di Siena, priority 2004, dated 2012).
Like-named read-outs stand apart in the source and are kept apart here. Positions of bridges follow the written chain, without caps; N, C: chain ends. Chains are numbered I, II in the order given. No end group written: not given here.

System: E. coli ATCC 25922
Experiment: Minimal bactericidal concentration (MBC)
Type: cell-based

## I: QKKIRVRLSAKKA-OH / II: QKKIRVRLSAK / III: QKKIRVRLSA / IV: QKKIRVRLSA (amide I:11-IV:C, I:12-II:C, II:11-III:C) [M6, QKKIRVRLSA]
  MBC (minimal concentration able to kill 99.9% of the inoculum) compared with MIC: equal to the calculated values of MIC
Listed as QKKIRVRLSA
  MBC (minimal concentration able to kill 99.9% of the inoculum) compared with MIC: equal to the corresponding MIC values
